Experimental data as given in patent US11229628B2, “TRPA1 and TRPV4 inhibitors and methods of using the same for organ-specific inflammation and itch” (Duke University, priority 2015, dated 2022).

Columns and labels:
Format in all cases: cell-based
[1] = molecular target: T1, human TRPV2 (Homo sapiens, UniProt Q9Y5S1); experiment: Ca2+ signal in N2a cells transfected with human TRPV2 (hypotonicity stimulation); conditions: hypotonicity (260 mosmol/L) stimulation
T1 construct: expressed in transfected cells; host or cells: N2a cells
T1 sequence (Q9Y5S1 1-764): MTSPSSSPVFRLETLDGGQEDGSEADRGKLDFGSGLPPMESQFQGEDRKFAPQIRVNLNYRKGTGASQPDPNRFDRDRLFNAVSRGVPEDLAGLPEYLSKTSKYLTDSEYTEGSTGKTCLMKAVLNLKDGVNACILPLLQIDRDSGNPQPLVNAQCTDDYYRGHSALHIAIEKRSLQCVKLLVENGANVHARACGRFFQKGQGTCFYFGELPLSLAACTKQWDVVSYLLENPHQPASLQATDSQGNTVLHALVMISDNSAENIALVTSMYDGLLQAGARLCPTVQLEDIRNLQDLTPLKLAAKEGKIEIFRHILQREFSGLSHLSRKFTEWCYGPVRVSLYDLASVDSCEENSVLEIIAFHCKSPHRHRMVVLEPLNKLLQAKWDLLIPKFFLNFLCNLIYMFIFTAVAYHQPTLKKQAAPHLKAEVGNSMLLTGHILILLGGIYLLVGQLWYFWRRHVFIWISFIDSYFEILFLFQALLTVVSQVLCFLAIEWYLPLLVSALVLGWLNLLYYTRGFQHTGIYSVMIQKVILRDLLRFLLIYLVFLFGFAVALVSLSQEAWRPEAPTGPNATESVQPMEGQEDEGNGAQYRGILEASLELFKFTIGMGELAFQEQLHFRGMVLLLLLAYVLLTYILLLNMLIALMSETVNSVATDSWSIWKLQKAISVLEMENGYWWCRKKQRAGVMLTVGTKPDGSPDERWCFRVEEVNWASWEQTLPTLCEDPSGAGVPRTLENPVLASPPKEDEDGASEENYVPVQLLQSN
Method: (§1) Compounds were tested for their effect on TRPV1, TRPV2, and TRPV3. Methods were similar to those described in Example 15. Briefly, N2a cells were transfected with human TRPV1, TRPV2, or TRPV3. eGFP-transfection was used as control. For specific stimulation of TRPV1, 5 μM capsaicin was used. For stimulation of TRPV2, hypotonicity (260 mosmol/L) was used, based on previous reports of TRPV2 being osmotically responsive. N2a cells were not responsive to hypotonicity, and neither were control-transfected cells. For TRPV3-expressing cells, camphor (20% of a commercially available stock solution) was used. […] Stimulation and control protocols were applied as for TRPA1-expressing N2a cells as detailed above in Example 15.
(§2) For TRPV1, TRPV2, and TRPV3, Ca2+ transience was not affected by administration of 16-8 or 16-8/18hy.

[2] = molecular target: T2, human TRPV3 (Homo sapiens, UniProt Q8NET8); experiment: Ca2+ signal in N2a cells transfected with human TRPV3 (camphor stimulation)
T2 construct: expressed in transfected cells; host or cells: N2a cells
T2 sequence (Q8NET8 1-790): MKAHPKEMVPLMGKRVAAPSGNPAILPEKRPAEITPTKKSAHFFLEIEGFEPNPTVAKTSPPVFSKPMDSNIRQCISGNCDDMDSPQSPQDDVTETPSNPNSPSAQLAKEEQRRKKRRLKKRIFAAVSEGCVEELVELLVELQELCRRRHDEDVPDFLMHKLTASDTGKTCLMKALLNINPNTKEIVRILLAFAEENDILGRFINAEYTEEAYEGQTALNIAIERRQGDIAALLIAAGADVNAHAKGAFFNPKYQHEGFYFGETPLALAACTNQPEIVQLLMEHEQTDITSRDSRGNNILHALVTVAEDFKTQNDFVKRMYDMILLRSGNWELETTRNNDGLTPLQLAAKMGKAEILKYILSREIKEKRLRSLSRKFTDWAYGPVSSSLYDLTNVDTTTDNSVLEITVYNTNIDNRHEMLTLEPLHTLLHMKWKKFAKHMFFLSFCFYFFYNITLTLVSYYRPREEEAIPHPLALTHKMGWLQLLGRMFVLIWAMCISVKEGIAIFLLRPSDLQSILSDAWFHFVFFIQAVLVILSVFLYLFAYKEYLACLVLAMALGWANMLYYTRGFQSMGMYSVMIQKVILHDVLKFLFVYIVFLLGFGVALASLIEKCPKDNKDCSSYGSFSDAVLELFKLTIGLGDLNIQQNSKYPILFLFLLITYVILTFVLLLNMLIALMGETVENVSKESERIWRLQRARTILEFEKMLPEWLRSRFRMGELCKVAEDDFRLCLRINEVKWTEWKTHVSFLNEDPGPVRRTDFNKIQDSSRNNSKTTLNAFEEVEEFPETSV
Method: as §1, §2

[3] = molecular target: T3, human TRPV1 (Homo sapiens, UniProt Q8NER1); experiment: Ca2+ signal in N2a cells transfected with human TRPV1 (capsaicin stimulation); conditions: 5 μM capsaicin stimulation
T3 construct: expressed in transfected cells; host or cells: N2a cells
Method: as §1, §2

T3 sequence (Q8NER1 whole entry): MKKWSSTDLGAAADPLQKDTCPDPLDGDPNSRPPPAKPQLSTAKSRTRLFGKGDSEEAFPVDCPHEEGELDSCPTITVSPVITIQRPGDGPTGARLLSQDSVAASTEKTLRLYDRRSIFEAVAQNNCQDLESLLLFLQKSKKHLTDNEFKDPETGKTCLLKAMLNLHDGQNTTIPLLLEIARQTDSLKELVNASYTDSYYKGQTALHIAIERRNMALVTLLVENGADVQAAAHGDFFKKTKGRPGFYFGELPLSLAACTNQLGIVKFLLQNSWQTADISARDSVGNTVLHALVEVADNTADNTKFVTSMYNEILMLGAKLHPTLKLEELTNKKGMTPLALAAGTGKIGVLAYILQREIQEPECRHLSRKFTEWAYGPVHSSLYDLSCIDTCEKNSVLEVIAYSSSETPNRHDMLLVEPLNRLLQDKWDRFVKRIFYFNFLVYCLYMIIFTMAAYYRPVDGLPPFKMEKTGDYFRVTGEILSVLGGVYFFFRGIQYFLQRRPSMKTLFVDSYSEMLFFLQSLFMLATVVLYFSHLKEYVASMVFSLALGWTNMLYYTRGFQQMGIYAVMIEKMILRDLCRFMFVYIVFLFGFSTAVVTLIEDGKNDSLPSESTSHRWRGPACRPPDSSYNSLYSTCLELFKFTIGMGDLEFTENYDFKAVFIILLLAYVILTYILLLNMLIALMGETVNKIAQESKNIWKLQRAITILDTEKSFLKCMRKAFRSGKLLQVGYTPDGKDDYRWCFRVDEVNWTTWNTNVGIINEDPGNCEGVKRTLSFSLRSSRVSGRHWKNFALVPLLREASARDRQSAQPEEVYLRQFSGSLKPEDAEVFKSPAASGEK

CN(CCc1ccc(Nc2nc(-c3ccccc3)cs2)cc1)Cc1ccccc1 [Compound 16-8]
not affected: Ca2+ transience, TRPV2 [1] | Ca2+ transience, TRPV3 [2] | Ca2+ transience, TRPV1 [3]

CCN(CCc1ccc(Nc2nc(-c3ccccc3)cs2)cc1)Cc1ccccc1 [16-8/18hy]
not affected: Ca2+ transience, TRPV2 [1] | Ca2+ transience, TRPV3 [2] | Ca2+ transience, TRPV1 [3]
